The target of the test is human activated kallikrein enzyme (Homo sapiens, UniProt P03952). Briefly: Inhibition of human activated plasma kallikrein, fluorogenic peptide substrate (PFR-AMC), 500 pM enzyme format. The test is classed as biochemical. Particulars: 500 pM activated kallikrein, 30 min preincubation, 10 min reaction, room temperature, read-out: Primary Dose Response Assay: Average EC50. Here is the method: Compounds were evaluated for inhibition of the human activated kallikrein enzyme in two formats of an assay employing a fluorogenic peptide substrate. In one assay format, the concentrations of reagents were as follows: 20 mM Tris pH 7.5, 1 mM EDTA, 150 mM sodium chloride, 0.1% PEG-400, 0.1% Triton X-100, 500 pM activated kallikrein enzyme, […] Pro-Phe-Arg-7-amido-4-methylcoumarin (PFR-AMC) substrate. Prior to reaction initiation with substrate, enzyme and inhibitors were preincubated for 30 min at room temperature. After initiation with substrate, reactions were incubated for 10 min at room temperature and fluorescence emission at 460 nm from 380 nm excitation measured with a microplate reader. In another assay format, the concentrations of reagents were as follows: 20 mM Tris pH 7.5, 1 mM EDTA, 150 mM sodium chloride, 0.1% PEG-400, 0.1% Triton X-100, 5 pM activated kallikrein enzyme, 300 uM PFR-AMC substrate. Prior to reaction initiation with substrate, enzyme and inhibitors were preincubated for 30 min at room temperature. After initiation with substrate, reactions were incubated for 18 hr at room temperature and fluorescence emission at 460 nm from 380 nm excitation measured with a microplate reader.
human activated kallikrein enzyme, sequence (P03952 391-638 limits assumed): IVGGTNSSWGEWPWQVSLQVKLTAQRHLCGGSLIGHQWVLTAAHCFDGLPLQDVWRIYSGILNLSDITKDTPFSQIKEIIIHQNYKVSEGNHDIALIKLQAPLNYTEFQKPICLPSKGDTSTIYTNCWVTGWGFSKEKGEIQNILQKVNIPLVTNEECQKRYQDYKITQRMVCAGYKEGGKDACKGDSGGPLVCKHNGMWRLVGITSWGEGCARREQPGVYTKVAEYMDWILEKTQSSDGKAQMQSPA
human activated kallikrein enzyme, sequence (P03952 20-390 partner limits assumed): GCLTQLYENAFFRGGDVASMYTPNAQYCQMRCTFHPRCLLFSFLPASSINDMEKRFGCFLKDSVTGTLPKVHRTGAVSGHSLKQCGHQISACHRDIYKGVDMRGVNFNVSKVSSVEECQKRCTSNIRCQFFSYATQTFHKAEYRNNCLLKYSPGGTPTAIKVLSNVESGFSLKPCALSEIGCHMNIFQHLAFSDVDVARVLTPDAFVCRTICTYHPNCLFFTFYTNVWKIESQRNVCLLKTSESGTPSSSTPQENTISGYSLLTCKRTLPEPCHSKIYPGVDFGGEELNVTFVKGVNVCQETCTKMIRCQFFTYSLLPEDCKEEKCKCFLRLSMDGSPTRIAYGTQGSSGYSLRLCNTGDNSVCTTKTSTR

The values that follow come from patent US20240226106A1, “INHIBITORS OF PLASMA KALLIKREIN” (SHIRE HUMAN GENETIC THERAPIES, INC., priority 2021, published 2024).

The EC50 is the midpoint of the concentration-response curve.

On to `CC(C)Oc1nccc2nc(CNc3cc(NC(=O)[C@H]4C[C@@H]4c4cccc(Cl)c4)ncn3)cn12` [Example 37, (1S,2S)-2-(3-chlorophenyl)-N-(6-(((5-isopropoxyimidazo[1,2-c]pyrimidin-2-yl)methyl)amino)pyrimidin-4-yl)cyclopropane-1-carboxamide], for which the EC50 was greater than 500 nM.

For the compound `CC(C)(O)CCc1cc(C2CC2)cc2cc(CNc3cc(NC(=O)[C@H]4C[C@@H]4c4cccc(Cl)c4)ncn3)nn12` [Example 51, (1S,2S)-2-(3-chlorophenyl)-N-(6-(((5-cyclopropyl-7-(3-hydroxy-3-methylbutyl)pyrazolo[1,5-a]pyridin-2-yl)methyl)amino)pyrimidin-4-yl)cyclopropane-1-carboxamide], the EC50 was in the range of 2.5 to 25 nM.

For `CN(C(=O)[C@H]1C[C@H](O)CN1c1cc(NC(=O)[C@H]2C[C@@H]2c2cccc(Cl)c2)ncn1)c1ccc(C2CC2)cc1` [Example 65, (2R,4S)-1-(6-((1S,2S)-2-(3-chlorophenyl)cyclopropane-1-carboxamido)pyrimidin-4-yl)-N-(4-cyclopropylphenyl)-4-hydroxy-N-methylpyrrolidine-2-carboxamide], the EC50 is greater than 500 nM.

`CCOC(=O)CCc1cc(C2CC2)cc2cc(CNc3cc(NC(=O)[C@H]4C[C@@H]4c4cccc(Cl)c4)ncn3)nn12` [Example 47, ethyl 3-(2-(((6-((1S,2S)-2-(3-chlorophenyl)cyclopropane-1-carboxamido)pyrimidin-4-yl)amino)methyl)-5-cyclopropylpyrazolo[1,5-a]pyridin-7-yl)propanoate]: the EC50 is 2.5 to 25 nM.

`Cc1ccnc([C@H]2C[C@@H]2C(=O)Nc2cc(N[C@@H](C)c3nc4c(N5CC(=O)N(C)C5=O)cc(C5CC5)cn4n3)ncn2)n1` (single isomer, unassigned; isomer 2) [Example 108]: the EC50 fell in the range of 2.5 to 25 nM.

In the case of `O=C(Nc1cc(OCc2ccc(Cn3cccn3)cc2)cnn1)C1CC12C(=O)Nc1ccccc12` (stereo not shown) [Example 7, N-(5-((4-((1H-pyrazol-1-yl)methyl)benzyl)oxy)pyridazin-3-yl)-2′-oxospiro[cyclopropane-1,3′-indoline]-2-carboxamide], the EC50 is greater than 500 nM.

With `Cc1ccnc([C@H]2C[C@@H]2C(=O)Nc2cc(OCc3cc(F)c4ncc(Cl)cc4c3)cnn2)n1` [Example 92, (1S,2S)—N-(5-((3-chloro-8-fluoroquinolin-6-yl)methoxy)pyridazin-3-yl)-2-(4-methylpyrimidin-2-yl)cyclopropane-1-carboxamide], the EC50 was in the range of 2.5 to 25 nM.

Regarding `N#Cc1ccc(Cl)cc1[C@H]1C[C@@H]1C(=O)Nc1cc(NCc2nc3ccc(C4CC4)cn3n2)ncn1` (racemic) [Example 24, rac-(1S*,2S*)-2-(5-chloro-2-cyanophenyl)-N-(6-(((6-cyclopropyl-[1,2,4]triazolo[1,5-a]pyridin-2-yl)methyl)amino)pyrimidin-4-yl)cyclopropane-1-carboxamide], the EC50 lay within 2.5 to 25 nM.

Regarding `Cc1cnn(-c2cc(COc3cnnc(NC(=O)[C@H]4C[C@@H]4c4cccc(Cl)c4)c3)ccn2)c1` (racemic) [Example 11, rac-(1S*,2S*)-2-(3-chlorophenyl)-N-(5-((2-(4-methyl-1H-pyrazol-1-yl)pyridin-4-yl)methoxy)pyridazin-3-yl)cyclopropanecarboxamide], the EC50 is greater than 500 nM.

With `Cc1ccnc([C@H]2C[C@@H]2C(=O)Nc2cc(N3C[C@@H](O)C[C@H]3c3ccc(N4CC5CC5C4)nc3)ncn2)n1` (mixture of isomers) [Example 70, rac-(1S*,2S*)—N-(6-((2S*,4S)-2-(6-(3-azabicyclo[3.1.0]hexan-3-yl)pyridin-3yl)-4-hydroxypyrrolidin-1-yl)pyrimidin-4-yl)-2-(4-methylpyrimidin-2-yl)cyclopropane-1-carboxamide], the EC50 is greater than 500 nM.

As to `Cc1ccnc([C@H]2C[C@@H]2C(=O)Nc2cc(NCc3cc(F)c4ncc(Cl)cc4c3)nc(C)n2)n1` [Example 91, (1S,2S)—N-(6-(((3-chloro-8-fluoroquinolin-6-yl)methyl)amino)-2-methylpyrimidin-4-yl)-2-(4-methylpyrimidin-2-yl)cyclopropane-1-carboxamide], the EC50 lay within 2.5 to 25 nM.

For the compound `O=C(O)CCc1cc(C2CC2)cc2cc(CNc3cc(NC(=O)[C@H]4C[C@@H]4c4cccc(Cl)c4)ncn3)nn12` [Example 48, 3-(2-(((6-((1S,2S)-2-(3-chlorophenyl)cyclopropane-1-carboxamido)pyrimidin-4-yl)amino)methyl)-5-cyclopropylpyrazolo[1,5-a]pyridin-7-yl)propanoic acid], the EC50 was in the range of 2.5 to 25 nM.

In the case of `O=C(Nc1cc(Cc2ccc3ncc(C4CC4)cc3c2)ncn1)[C@H]1C[C@@H]1c1cccc(Cl)c1` (racemic) [Example 21, rac-(1S*,2S*)-2-(3-chlorophenyl)-N-(6-((3-cyclopropylquinolin-6-yl)methyl)pyrimidin-4-yl)cyclopropane-1-carboxamide], the EC50 is greater than 500 nM.

`O=C(Nc1cc(OCc2ccc(Cn3cccn3)cc2)cnn1)[C@H]1C[C@@H]1c1cn[nH]c1` (racemic) [Example 6, rac-(1S*,2S*)—N-(5-((4-((1H-pyrazol-1-yl)methyl)benzyl)oxy)pyridazin-3-yl)-2-(1H-pyrazol-4-yl)cyclopropane-1-carboxamide]: the EC50 was greater than 500 nM.

For `O=C(Nc1cc(NCc2cnc3ccc(C4CC4)cc3c2)ccn1)[C@H]1C[C@@H]1c1cccc(Cl)c1` [Example 34, (1S,2S)-2-(3-chlorophenyl)-N-(4-(((6-cyclopropylquinolin-3-yl)methyl)amino)pyridin-2-yl)cyclopropane-1-carboxamide], the EC50 was 2.5 to 25 nM.

As to `CN1C(=O)CN(c2cc(C3CC3)nn3cc(CNc4cc(NC(=O)[C@H]5C[C@@H]5c5cccc(Cl)c5)ncn4)nc23)C1=O` [Example 62, (S,2S)-2-(3-chlorophenyl)-N-(6-(((6-cyclopropyl-8-(3-methyl-2,4-dioxoimidazolidin-1-yl)imidazo[1,2-b]pyridazin-2-yl)methyl)amino)pyrimidin-4-yl)cyclopropane-1-carboxamide], the EC50 is 2.5 to 25 nM.

For the compound `N#Cc1ccc(Cl)cc1[C@H]1C[C@@H]1C(=O)Nc1cc(NCc2nc3ccc(C4CC4)cn3n2)ccn1` (racemic) [Example 30, rac-(1S*,2S*)-2-(5-chloro-2-cyanophenyl)-N-(4-(((6-cyclopropyl-[1,2,4]triazolo[1,5-a]pyridin-2-yl)methyl)amino)pyridin-2-yl)cyclopropane-1-carboxamide], the concentration giving a half-maximal response (EC50) was less than 2.5 nM.

Consider `N#Cc1ccc(Cl)cc1[C@H]1C[C@@H]1C(=O)Nc1cc(NCc2nc3ccc(C4CC4)nn3n2)ncn1` (racemic) [Example 27, rac-(1S*,2S*)-2-(5-chloro-2-cyanophenyl)-N-(6-(((6-cyclopropyl-[1,2,4]triazolo[1,5-b]pyridazin-2-yl)methyl)amino)pyrimidin-4-yl)cyclopropane-1-carboxamide], for which the EC50 lay within 2.5 to 25 nM.

In the case of `O=C(Nc1cc(C2(c3ccc(Cn4cc(Cl)ccc4=O)cc3)CC2)cnn1)[C@H]1C[C@@H]1c1cccc(Cl)c1` (racemic) [Example 20, rac-(1S*,2S*)—N-(5-(1-(4-((5-chloro-2-oxopyridin-1 (2H)-yl)methyl)phenyl)cyclopropyl)pyridazin-3-yl)-2-(3-chlorophenyl)cyclopropane-1-carboxamide], the EC50 was greater than 500 nM.

Take `O=C(Nc1cn(Cc2ccc(Cn3cccn3)cc2)cn1)[C@H]1C[C@@H]1c1cccc(Cl)c1` (racemic) [Example 9, rac-(1S*,2S*)—N-(1-(4-((1H-pyrazol-1-yl)methyl)benzyl)-1H-imidazol-4-yl)-2-(3-chlorophenyl)cyclopropane-1-carboxamide]: the EC50 was greater than 500 nM.

Turning to `O=C(Nc1cc(NCc2ccc(Cn3cc(Cl)ccc3=O)cc2)cnn1)[C@H]1C[C@@H]1c1cccc(Cl)c1` (racemic) [Example 17, rac-(1S*,2S*)—N-(5-((4-((5-chloro-2-oxopyridin-1 (2H)-yl)methyl)benzyl)amino)pyridazin-3-yl)-2-(3-chlorophenyl)cyclopropane-1-carboxamide], the EC50 fell in the range of 2.5 to 25 nM.

`O=C(Nc1cc(NCc2nc3ncc(C4CC4)cn3n2)ncn1)[C@H]1C[C@@H]1c1cccc(Cl)c1` [Example 32, (1S,2S)-2-(3-chlorophenyl)-N-(6-(((6-cyclopropyl-[1,2,4]triazolo[1,5-a]pyrimidin-2-yl)methyl)amino)pyrimidin-4-yl)cyclopropane-1-carboxamide]: the EC50 fell in the range of 2.5 to 25 nM.

For `O=C(Nc1cc(NCc2ccc(Cn3ccccc3=O)cc2)cnn1)[C@H]1C[C@@H]1c1cccc(Cl)c1` (single isomer, unassigned) [Example 15], the EC50 lay in the range of 25 to 500 nM.

As to `O=C(Nc1cc(N2C[C@@H](O)C[C@@H]2C(=O)Nc2ccc(C3CC3)cc2)ncn1)[C@H]1C[C@@H]1c1cccc(Cl)c1` [Example 64, (2R,4S)-1-(6-((1S,2S)-2-(3-chlorophenyl)cyclopropane-1-carboxamido)pyrimidin-4-yl)-N-(4-cyclopropylphenyl)-4-hydroxypyrrolidine-2-carboxamide], the EC50 was greater than 500 nM.

As for `O=C(Nc1cc(NCc2nc3c(N4CCOC4=O)cc(C4CC4)cn3n2)ncn1)[C@H]1C[C@@H]1c1cccc(Cl)c1` [Example 43, (1S,2S)-2-(3-chlorophenyl)-N-(6-(((6-cyclopropyl-8-(2-oxooxazolidin-3-yl)-[1,2,4]triazolo[1,5-a]pyridin-2-yl)methyl)amino)pyrimidin-4-yl)cyclopropane-1-carboxamide], the 50% effective concentration (EC50) fell in the range of 2.5 to 25 nM.
